This is an account of results in US20250241901A1, “ACTIVATION OF MNRR1 / CHCHD2 AS A THERAPEUTIC TARGET FOR MITOCHONDRIA ASSOCIATED DISORDERS” (Wayne State University, priority 2024, published 2025).

Structures are written as SMILES.

Data set [1] has as its system E. coli-induced placental inflammation. Description: E. coli-induced placental inflammation model of preterm birth. The class given is in vivo. Conditions: same dosage as in LPS model. From the text: Using the E. coli-induced placental inflammation model and methods similar to those described in Spencer et al. (PLoS One, 16(12): e0260370, 2021 doi: 10.1371/journal.pone.0260370), nitazoxanide therapy will be tested using the same dosage as above and in Purandare et al. (Placenta 140:66-71, 8 Jul. 2023; Purandare et al., bioRxiv, Feb. 1, 2023).

A short description of data set [2]: Clinical use of nitazoxanide in adult humans. The class given is in vivo, human. As to conditions: 500 mg (per adult) twice a day.
The test system of another data set is MNRR1. Description: MNRR1-luciferase reporter assay in HTR cells. The data set is classed as cell-based. Conditions: Homo sapiens; HTR8 cells, 24 h, relative to vehicle (DMSO); read-out: half-maximal effective concentration (EC50), activation of MNRR1 reporter. Here is the method:
FIGS. 1A-1D. Nitazoxanide's anti-inflammatory effects are via transcriptional activation of MNRR1. (FIG. 1A) Results of a screen of ˜2400 FDA-approved drugs and natural compounds identified to transcriptionally activate (>1), inhibit (<1), or not affect (=1) MNRR1. Each circle represents one drug and the MNRR1 activator (nitazoxanide (N)) has been highlighted in green. (FIG. 1B) Equal numbers of HTR cells overexpressing the MNRR1-luciferase reporter were plated on a 96 well plate and treated with increasing amounts of nitazoxanide or vehicle (DMSO) for 24 h. EC50 was calculated using the activation of MNRR1 reporter relative to vehicle treated cells using the Quest Graph^TM EC50 Calculator. (FIG. 1C) TNF transcript levels were measured in human placental cells. Actin was used as a housekeeping gene for normalization. […]
Transfections and luciferase reporter assays: HTR cells were transfected with the indicated plasmids, using TransFast transfection reagent (Promega, Madison, WI, USA) according to the manufacturer's protocol as previously described (Purandare et al., iScience, 25: 105342, 2022). […] EC50 was calculated by using the Quest Graph™ EC50 Calculator (AAT Bioquest, Inc., on the World Wide Web at aatbio.com/tools/ec50-calculator).

For data set [3], the system named is MELAS patient fibroblasts. Description: LPS-induced ROS and TNF levels in MELAS patient fibroblasts. The class given is cell-based, human. Conditions: 10 μM + 500 ng/mL LPS, 24 h. Here is the method:
FIGS. 8A-8D: MNRR1 activation using tizoxanide enhances mitochondrial function, mitophagy, and protects from LPS-induced inflammation in MELAS patient fibroblasts. FIG. 8A: Equal amounts of lysates from MELAS patient fibroblast (MF 1, 2, or 3) lysates treated with vehicle (DMSO) or tizoxanide (10 μM) for 48 h were separated on an SDS-PAGE gel and probed for LC3B, PGC1a, MNRR1, MTCO2, TOM20, and phospho-ubiquitin (S65) levels. GAPDH orTubulin was probed as a loading control. FIG. 8B: Oxygen consumption measured from MELAS patient fibroblasts treated with vehicle (DMSO) or tizoxanide (10 μM) for 48 h (n=4 biological replicates, mean±SE). FIG. 8C: Mitochondrial ATP rate measured in MELAS patient fibroblasts treated with vehicle (DMSO) or tizoxanide (10 μM) for 48 h (n=4 biological replicates, mean±SE). FIG. 8D: Heatmap representation of ROS and TNFα transcript levels from MELAS patient fibroblasts treated with vehicle (DMSO), LPS (DMSO+500 ng/mL LPS), or LPS plus tizoxanide (10 μM tizoxanide+500 ng/mL LPS) for 24 h (n=4 biological replicates). In all figures, * indicates p<0.05, ** indicates p<0.005.
ROS measurements: Total cellular ROS measurements were performed with CM-H2DCFDA (Life Technologies). […] Cells were washed twice in phosphate buffered saline and analyzed for fluorescence on a BioTek Synergy H1 Microplate Reader (Agilent).

Turning to `CC(=O)Oc1ccccc1C(=O)Nc1ncc([N+](=O)[O-])s1` [nitazoxanide, Nitazoxanide], in data set [1], the “reducing or preventing pre-term birth” value is “effective in reducing or preventing pre-term birth”. In data set [2], the “drug concentration in the blood” value is reported as “around 600 micromolar”. Besides, the EC50 with MNRR1 was 115 nM.
As for `O=C(Nc1ncc([N+](=O)[O-])s1)c1ccccc1O` [tizoxanide, Tizoxanide], the “LPS-induced pro-inflammatory response (ROS and TNF levels)” value in data set [3] is given as “blocked”.
